Test system: human C-Myc gene transcription in MV-4-11 cells
Experiment: Transcription of human C-Myc in human leukemic MV-4-11 cells (QuantiGene 2.0)
Type: cell-based
Conditions: Homo sapiens, MV4-11, 4 h, inhibition of C-Myc mRNA, 4 hours treatment
Description: b) Transcription of Human C-Myc in Human Leukemic MV-4-11 Cells:
The effect of compounds on transcription of human C-Myc gene is monitored in human B-myelomonocytic leukemia cell line MV-4-11 (from American Type Culture Collection (ATCC), Manassas, Va., USA) using QuantiGene 2.0 assay kit (Affymetrix, Santa Clara, Calif., USA).
Typically, 8,000 MV-4-11 cells are plated in sterile 96-well plates (Costar #3598 from Fisher Scientific Canada, Ottawa, Ontario, Canada) in Iscove's medium supplemented with 10% fetal bovine serum, glutamine (2 mM), and penicillin (100 I.U.) and streptomycin (100 μg/mL) (all from Wisent Inc., St. Bruno, Quebec, Canada). Compounds are dissolved in DMSO at 30 mM. A series of 1:3 dilutions are first made in DMSO, and further […] dilutions are made in serum-containing cell culture media. The final concentration of DMSO is […] in cell culture media. After cells are treated with various concentrations of test compound for 4 hours, cells are lysed using Quantigene 2.0 sample processing kit (#QS0100). C-Myc mRNA is detected using a QuantiGene 2.0 assay kit (#QS0009) with gene-specific probe to human C-Myc (#SA-50182) following the manufacturer's recommendations. Luminescene signals are read on Flexstation II microplate reader (Molecular Devices, Sunnyvale, Calif., USA). Percentage of inhibition of C-Myc transcription is analyzed using EXCEL (2010 version).

SMILES	IC50 [nM]
Cc1cc(-c2ccc3ncc(S(=O)(=O)N(C)C4CCOC4)n3c2)cn(C)c1=O (single isomer, unassigned) [Compound 47, 6-(1,5-dimethyl-6-oxo-1,6-dihydropyridin-3-yl)-N-methyl-N-(tetrahydrofuran-3-yl)imidazo[1,2-a]pyridine-3-sulfonamide]	731
Cc1cc(-c2ccc3ncc(S(=O)(=O)NC4CCOC4)n3c2)cn(C)c1=O (single isomer, unassigned) [Compound 52, 6-(1,5-dimethyl-6-oxo-1,6-dihydropyridin-3-yl)-N-(tetrahydrofuran-3-yl) imidazo[1,2-a]pyridine-3-sulfonamide]	891
COC(c1ccccc1)c1cnc2ccc(-c3cc(C)c(=O)n(C)c3)cn12 (centres unmarked) [Compound 7, 5-[3-[methoxy(phenyl)methyl]imidazo[1,2-a]pyridin-6-yl]-1,3-dimethyl-pyridin-2-one]	92.8
Cc1cc(-c2ccc3ncc(C(=O)N4CCOCC4)n3c2)cn(C)c1=O [Compound 11, 1,3-dimethyl-5-(3-(morpholine-4-carbonyl)imidazo[1,2-a]pyridin-6-yl) pyridin-2(1H)-one]	2730
Cc1cc(-c2ccc3ncc(C(=O)NC4CCCCC4)n3c2)cn(C)c1=O [Compound 12, N-cyclohexyl-6-(1,5-dimethyl-6-oxo-1,6-dihydropyridin-3-yl)imidazo[1,2-a] pyridine-3-carboxamide]	912
Cc1cc(-c2ccc3ncc(C(=O)N4CCCCC4)n3c2)cn(C)c1=O [Compound 13, 1,3-dimethyl-5-(3-(piperidine-1-carbonyl)imidazo[1,2-a]pyridin-6-yl)pyridin-2(1H)-one]	2660
Cc1cc(-c2ccc3ncc(S(=O)(=O)N4CCCCC4)n3c2)cn(C)c1=O [Compound 14, 1,3-dimethyl-5-(3-(piperidin-1-ylsulfonyl)imidazo[1,2-a]pyridin-6-yl)pyridin-2(1H)-one]	508
CCNS(=O)(=O)c1cnc2ccc(-c3cc(C)c(=O)n(C)c3)cn12 [Compound 15, 6-(1,5-dimethyl-6-oxo-1,6-dihydropyridin-3-yl)-N-ethylimidazo[1,2-a] pyridine-3-sulfonamide]	2520
Cc1cc(-c2ccc3ncc(S(=O)(=O)NC4CCCC4)n3c2)cn(C)c1=O [Compound 16, N-cyclopentyl-6-(1,5-dimethyl-6-oxo-1,6-dihydropyridin-3-yl)imidazo[1,2-a]pyridine-3-sulfonamide]	81.3
Cc1cc(-c2ccc3ncc(S(=O)(=O)NC(C)C)n3c2)cn(C)c1=O [Compound 17, 6-(1,5-dimethyl-6-oxo-1,6-dihydropyridin-3-yl)-N-isopropylimidazo [1,2-a] pyridine-3-sulfonamide]	758
Cc1cc(-c2ccc3ncc(S(=O)(=O)NC4CCCCC4)n3c2)cn(C)c1=O [Compound 18, N-cyclohexyl-6-(1,5-dimethyl-6-oxo-1,6-dihydropyridin-3-yl)imidazo[1,2-a]pyridine-3-sulfonamide]	93.7
Cc1cc(-c2ccc3ncc(S(=O)(=O)N4CCCC4)n3c2)cn(C)c1=O [Compound 19, 1,3-dimethyl-5-(3-(pyrrolidin-1-ylsulfonyl)imidazo[1,2-a]pyridin-6-yl)pyridin-2(1H)-one]	170
Cc1cc(-c2ccc3ncc(CN4CCC(F)(F)CC4)n3c2)cn(C)c1=O [Compound 20, 5-[3-[(4,4-difluoro-1-piperidyl)methyl]imidazo[1,2-a]pyridin-6-yl]-1,3-dimethyl-pyridin-2-one]	112
Cc1cc(-c2ccc3ncc(CN4CCOCC4)n3c2)cn(C)c1=O [Compound 21, 1,3-dimethyl-5-[3-(morpholinomethyl)imidazo[1,2-a]pyridin-6-yl]pyridin-2-one]	816
Cc1cc(-c2ccc3ncc(NC4CCCC4)n3c2)cn(C)c1=O [Compound 22, 5-[3-(cyclopentylamino)imidazo[1,2-a]pyridin-6-yl]-1,3-dimethyl-pyridin-2-one]	9.8
Cc1cc(-c2ccc3ncc(NCC4CCCC4)n3c2)cn(C)c1=O [Compound 23, 5-[3-(cyclopentylmethylamino)imidazo[1,2-a]pyridin-6-yl]-1,3-dimethyl-pyridin-2-one]	16.5
Cc1nc2ccc(-c3cc(C)c(=O)n(C)c3)cn2c1Cc1ccccc1 [Compound 24, 5-(3-benzyl-2-methyl-imidazo[1,2-a]pyridin-6-yl)-1,3-dimethyl-pyridin-2-one]	32.2
Cc1cc(-c2ccc3ncc(COC4CCC4)n3c2)cn(C)c1=O [Compound 25, 5-[3-(cyclobutoxymethyl)imidazo[1,2-a]pyridin-6-yl]-1,3-dimethyl-pyridin-2-one]	174
Cc1cc(-c2ccc3ncc(CN4CCCCC4=O)n3c2)cn(C)c1=O [Compound 26, 1,3-dimethyl-5-[3-[(2-oxo-1-piperidyl)methyl]imidazo[1,2-a]pyridin-6-yl]pyridin-2-one]	492
Cc1cc(-c2ccc3ncc(Nc4ccccc4)n3c2)cn(C)c1=O [Compound 30, 5-(3-anilinoimidazo[1,2-a]pyridin-6-yl)-1,3-dimethyl-pyridin-2-one]	24.9
Cc1cc(-c2ccc3ncc(COCC(F)(F)F)n3c2)cn(C)c1=O [Compound 34, 1,3-dimethyl-5-[3-(2,2,2-trifluoroethoxymethyl)imidazo[1,2-a]pyridin-6-yl]pyridin-2-one]	234
Cc1cc(-c2ccc3ncc(S(=O)(=O)NC4CCOCC4)n3c2)cn(C)c1=O [Compound 42, 6-(1,5-dimethyl-6-oxo-1,6-dihydropyridin-3-yl)-N-(tetrahydro-2H-pyran-4-yl)imidazo[1,2-a]pyridine-3-sulfonamide]	865
Cc1cc(-c2ccc3ncc(S(=O)(=O)N4CCC[C@H]4C)n3c2)cn(C)c1=O [Compound 45, (R)-1,3-dimethyl-5-(3-((2-methylpyrrolidin-1-yl)sulfonyl)imidazo[1,2-a]pyridin-6-yl)pyridin-2(1H)-one]	507
Cc1cc(-c2ccc3ncc(S(=O)(=O)N4CCC[C@@H]4C)n3c2)cn(C)c1=O [Compound 46, (S)-1,3-dimethyl-5-(3-((2-methylpyrrolidin-1-yl)sulfonyl)imidazo[1,2-a]pyridin-6-yl)pyridin-2(1H)-one]	178
Cc1cc(-c2ccc3ncc(S(=O)(=O)C4CCCC4)n3c2)cn(C)c1=O [Compound 49, 5-(3-(cyclopentylsulfonyl)imidazo[1,2-a]pyridin-6-yl)-1,3-dimethylpyridin-2(1H)-one]	851
CO[C@H]1CCN(S(=O)(=O)c2cnc3ccc(-c4cc(C)c(=O)n(C)c4)cn23)C1 [Compound 50, (S)-5-(3-((3-methoxypyrrolidin-1-yl)sulfonyl)imidazo[1,2-a]pyridin-6-yl)-1,3-dimethylpyridin-2(1H)-one]	2370
CO[C@@H]1CCN(S(=O)(=O)c2cnc3ccc(-c4cc(C)c(=O)n(C)c4)cn23)C1 [Compound 51, (R)-5-(3-((3-methoxypyrrolidin-1-yl)sulfonyl)imidazo [1,2-a]pyridin-6-yl)-1,3-dimethylpyridin-2(1H)-one]	615
Cc1nc2ccc(-c3cc(C)c(=O)n(C)c3)cn2c1Cc1ccccn1 [Compound 54, 1,3-dimethyl-5-[2-methyl-3-(2-pyridylmethyl)imidazo[1,2-a]pyridin-6-yl] pyridin-2-one]	151
Cc1nc2ccc(-c3cc(C)c(=O)n(C)c3)cn2c1Cc1cccnc1 [Compound 55, 1,3-dimethyl-5-[2-methyl-3-(3-pyridylmethyl)imidazo[1,2-a]pyridin-6-yl] pyridin-2-one]	84.5
Cc1nc2ccc(-c3cc(C)c(=O)n(C)c3)cn2c1Cc1ccncc1 [Compound 56, 1,3-dimethyl-5-[2-methyl-3-(4-pyridylmethyl)imidazo[1,2-a]pyridin-6-yl] pyridin-2-one]	153

Same assay, conditions: inhibition of C-Myc mRNA, 4 hours treatment

SMILES	IC50 [nM]
Cc1cc(-c2ccc3ncc(S(=O)(=O)N(C)C4CCOC4)n3c2)cn(C)c1=O (single isomer, unassigned) [Compound 48, 6-(1,5-dimethyl-6-oxo-1,6-dihydropyridin-3-yl)-N-methyl-N-(tetrahydrofuran-3-yl)imidazo[1,2-a]pyridine-3-sulfonamide]	537
Cc1cc(-c2ccc3ncc(S(=O)(=O)NC4CCOC4)n3c2)cn(C)c1=O (single isomer, unassigned) [Compound 53, 6-(1,5-dimethyl-6-oxo-1,6-dihydropyridin-3-yl)-N-(tetrahydrofuran-3-yl) imidazo[1,2-a]pyridine-3-sulfonamide]	898
COC(c1ccccc1)c1cnc2ccc(-c3cc(C)c(=O)n(C)c3)cn12 (centres unmarked) [Compound 6, 5-[3-[methoxy(phenyl)methyl]imidazo[1,2-a]pyridin-6-yl]-1,3-dimethyl-pyridin-2-one]	91.3
Cc1cc(-c2ccc3ncc(S(=O)(=O)NC4CCCOC4)n3c2)cn(C)c1=O (centres unmarked) [Compound 43, 6-(1,5-dimethyl-6-oxo-1,6-dihydropyridin-3-yl)-N-(tetrahydro-2H-pyran-3-yl)imidazo[1,2-a]pyridine-3-sulfonamide]	253
Cc1cc(-c2ccc3ncc(S(=O)(=O)NC4CCCOC4)n3c2)cn(C)c1=O (centres unmarked) [Compound 44, 6-(1,5-dimethyl-6-oxo-1,6-dihydropyridin-3-yl)-N-(tetrahydro-2H-pyran-3-yl)imidazo[1,2-a]pyridine-3-sulfonamide]	597

— US10501459B2, “Substituted imidazo[1,2-a]pyridines as bromodomain inhibitors” (NEOMED Institute, priority 2015, dated 2019)
